This is an account of results in patent publication US20100179130A1, “USE OF PIPERINE AND DERIVATIVES THEREOF FOR THE THERAPY OF NEUROLOGICAL CONDITIONS” (SYNGIS Bioscience GmbH & Co. KG, priority 2007, published 2010).

One data set has as its system neural stem cells. As to the kind of experiment: In vitro differentiation assay on adult neural stem cells (beta-III-tubulin promoter firefly/Renilla dual luciferase reporter). It is filed as cell-based, rat. The text has this:
The neuroregenerative effect of the compounds according to the present invention can be assayed in vitro by measuring their stimulation of the differentiation of neural stem cells. Therefore, adult neural stem cells have to be isolated and subsequently cultivated in a suitable culture medium. After several passages in vitro the stem cells have to be co-transfected with a DNA construct coding for two discriminable reporter proteins one of them under the control of a constitutive promoter and the other under the control of a beta-III-tubulin promoter. The beta-III-tubulin promoter is induced during the process of neural stem cell differentiation; therefore the reporter protein under the control of this promoter serves as a marker for the stem cell differentiation in such an in vitro dual reporter assay (Schneider et al., J Clin Investigation 2005; 115:2083-2098). The person skilled in the art knows several suitable constitutive promoters such as the SV40-promoter, the TK-promoter, or the CMV-promoter. As discriminable reporter proteins for such a dual reporter assay one can use discriminable luciferases such as firefly luciferase and Renilla luciferase. The transfected cells have to be incubated with the test compound and with a positive and negative controls for normalization and background correction. As a positive control compound one can use retinoic acid (Guan et al., Cell Tissue Res. 2001; 305:171-176; Jacobs et al., Proc. Natl. Acad. Sci. USA 2006; 103:3902-3907), a suitable negative control is the sham treatment of the cells. The neroregenerative activity of the test compound is determined as the ratio of the signal of the beta-III-tubulin promoter controlled reporter versus the signal of the constitutively expressed reporter and is expressed as fold from the control. This assay is suitable to assess the neuroregenerative activity of piperine and derivatives thereof, but also can be used to screen for other potential neuroregenerative compounds. Preferably, such a screening can be used to test compounds which are already known to be suitable as a medicament in terms of its toxicology, bioavailability, solubility, stability etc.
Neural stem cells were isolated from the subventricular zone of 4 week-old male Wistar rats as described (Maurer et al, Proteome Sci. 2003; 1:4). Cells were cultivated in Neurobasal medium (Invitrogen) supplemented with B27 (Invitrogen), 2 mM L-glutamine, 100 units/ml penicillin, 100 units/ml streptomycin, 20 ng/ml […] (EGF), 20 ng/ml fibroblast growth factor-2 (FGF-2), and 2 μg/ml heparin. Once a week the neural stem cells were passaged and experiments were performed after 4 weeks in vitro. For DNA transfection, the cells were dissociated and plated on poly-L-ornithin/laminin-coated 96-well plates at a density of 50.000 cells/well. Cotransfection with the pGL3-p-βIII-tubulin vector (100 ng/well) and the pRL SV40 vector (100 ng/well) was carried out according to the FuGene6 Transfection protocol (Roche). The pRL SV40 vector (Promega) served as an internal control vector.
To amplify the class III β-tubulin gene promoter (fragment −450-+54), rat genomic DNA was used as a template for PCR (Dennis et al., Gene 2002; 294:269-277). The amplified fragment was inserted into the Mlu I/Xho I site of the pGL3-Basic firefly luciferase reporter vector (Promega) to generate the pGL3-p-βIII-tubulin experimental vector.
After overnight incubation, the plate was decanted and given in 8-fold replicates fresh medium containing piperine (Sigma) or vehicle. As a positive control for in vitro differentiation, stem cells were treated by adding 1 μM retinoic acid (Sigma) to the medium missing the mitogens.
After 48 hrs, the cells were harvested to prepare the cellular extracts for luciferase assay following the directions of the manufacturer (Promega). […]

Data set [1] relates to SH-SY5Y neuronal cells. As to the kind of experiment: In vitro anti-apoptosis assay, staurosporine induced apoptosis, Caspase-Glo 3/7. It is filed as cell-based, human. The conditions noted are these: compound 1 μM in the presence of staurosporine 0.1 μM; SH-SY5Y.
For data set [2], the system named is SH-SY5Y neuronal cells. As to the kind of experiment: In vitro viability assay, cells stably transfected with constitutive Renilla luciferase. The conditions noted are these: 1 μM, 5 h. The text has this:
The viability assay allows for further assessment of test compounds regarding their effect on cells such as neurons. […] Subsequently, the signal generated by the reporter construct serves as a readout for the viability of the cells in the presence of the test compound. The assay enables the evaluation of potential neurotoxic effects of the test compound itself.
The effect of a compound on the viability of neuronal cells can be assayed in vitro by measuring the survival of neuronal cells transfected with a reporter construct under a constitutive promoter. SH-SY5Y neuronal cells stably transfected with a Renilla luciferase construct under the SV40 promoter were seeded in 96-well plates at a density of 2.5×10^4 cells per well. Following overnight incubation the cells were stimulated with medium containing piperine or vehicle. Staurosporine (0.1 μM) served as positive control. The Renilla luciferase activity was measured 5 h later using a luminometer (Berthold Technologies, Mithras LB 940). Piperine was tested in a range from 0.1 nM to 100 μM final concentration.

Data set [3] deals with motoneural cell line NSC-34. As to the kind of experiment: Anti-apoptosis assay on motoneural cell line, staurosporine induced apoptosis, Caspase-Glo 3/7. It is filed as cell-based. Particulars: compound 1 μM in the presence of staurosporine 0.1 μM. The method, then: Instead of the SH-SY5Y cells used in Example 3 and 4, this analysis was performed with motoneural cell line NSC-34. […] Incubation with staurosporine (SP; 0.1 μM) alone served as positive control and incubation with vehicle served as negative control. The degree of apoptosis relative to the staurosporine control is shown in FIG. 4 (vehicle (sham): 6%; staurosporine (SP): 100%; piperine plus staurosporine: 70%; derivative B plus staurosporine: 55%; derivative E plus staurosporine: 75%; derivative G plus staurosporine: 76%; derivative K plus staurosporine: 83%; derivative S plus staurosporine: 77%; derivative U plus staurosporine: 71%).

For the molecule `O=C(C=Cc1ccc2c(c1)OCO2)NC1=NCCS1` [3-Benzol[1,3]dioxol-5-yl-N-(4,5-dihydro-thiazol-2-yl)-acrylamide], in the data set with neural stem cells (0.2 μM up to 25, 50 or 100 μM, compared with sham and 1 μM retinoic acid), the “differentiation of neural stem cells to neurons, dose dependence” value is “significantly stimulates”. Besides, in the data set with neural stem cells (1 μM final compound concentration, in comparison to sham treatment), the “Stimulation factor for differentiation of neural stem cells” value is 4.6 x-fold. Besides, the results for the “degree of apoptosis relative to the staurosporine control” value (in the data set with SH-SY5Y neuronal cells [1]; in data set [3]) were 79% and 76%, respectively. Further, the “viability of neuronal cells” value in the data set on SH-SY5Y neuronal cells [2] is on record as “did not show reduced viability”.
